From patent publication US20070117743A1, “New antitumoral compounds” (priority 2003, published 2007)
Like-named read-outs stand apart in the source and are kept apart here.

How the values were obtained:
Format in all cases: cell-based, human
[1] = tested on: PANC-1; test: SRB colorimetric assay of cell growth and viability, PANC-1; conditions: 48 hours exposure; for CC50: read-out: LC50 PANC-1
[2] = tested on: HT-29; test: SRB colorimetric assay of cell growth and viability, HT-29; conditions: 48 hours exposure; for GI50: read-out: GI50 HT-29; for CC50: read-out: LC50 HT-29
[3] = tested on: DU-145; test: SRB colorimetric assay of cell growth and viability, DU-145; conditions: 48 hours exposure
[4] = tested on: SK-BR-3; test: SRB colorimetric assay of cell growth and viability, SK-BR-3; conditions: 48 hours exposure
[5] = tested on: LoVo-Dox; test: SRB colorimetric assay of cell growth and viability, LoVo-Dox; conditions: 48 hours exposure; for CC50: read-out: LC50 LOVO-DOX
Summary of the method: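 Tumor cells are continuously exposed to sample for 48 hours, with vehicle DMSO:EtOH:PBS (0.5:0.5:99), after an 18-hour drug-free attachment period. Bound SRB, measured at 490 nm, reflects cell mass; GI, TGI and LC are derived from triplicate means.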

[6] = tested on: HeLa-APL; test: SRB colorimetric assay of cell growth and viability, HeLa-APL; conditions: 48 hours exposure; for CC50: read-out: LC50 HELA-APL
[7] = tested on: LoVo; test: SRB colorimetric assay of cell growth and viability, LoVo; conditions: 48 hours exposure; for CC50: read-out: LC50 LOVO
[8] = tested on: SK-MEL-28; test: SRB colorimetric assay of cell growth and viability, SK-MEL-28; conditions: 48 hours exposure; for CC50: read-out: LC50 MEL-28
[9] = tested on: LNCaP; test: SRB colorimetric assay of cell growth and viability, LNCaP; conditions: 48 hours exposure; for GI50: read-out: GI50 LN-caP; for CC50: read-out: LC50 LN-caP
[10] = tested on: K-562; test: SRB colorimetric assay of cell growth and viability, K-562; conditions: 48 hours exposure; for CC50: read-out: LC50 K-562
[11] = tested on: A-549; test: SRB colorimetric assay of cell growth and viability, A-549; conditions: 48 hours exposure; for GI50: read-out: GI50 A-549; for CC50: read-out: LC50 A-549
[12] = tested on: IGROV-1; test: SRB colorimetric assay of cell growth and viability, IGROV-1; conditions: 48 hours exposure
[13] = tested on: HeLa; test: SRB colorimetric assay of cell growth and viability, HeLa; conditions: 48 hours exposure; for CC50: read-out: LC50 HELA
[14] = tested on: IGROV-ET; test: SRB colorimetric assay of cell growth and viability, IGROV-ET; conditions: 48 hours exposure; for CC50: read-out: LC50 IGROV-ET

## C/C=C1\NC(=O)[C@H](Cc2ccccc2)NC(=O)[C@@H](C(C)C)NC(=O)[C@@H]([C@@H](C)CC)NC(=O)[C@H](NC(=O)[C@H](NC(=O)[C@H](CCCN)NC(=O)[C@H]2CCCN2C(=O)[C@H](NC(=O)[C@@H](NC(=O)[C@@H](NC(=O)[C@H](NC(=O)CCCCCCC)C(C)C)[C@@H](C)O)C(C)C)C(C)C)[C@@H](C)CC)[C@@H](C)OC(=O)[C@H](C(C)C)NC1=O [Compound 18, [Oct^14]-KF]
[1]
  GI50: 2010 nM
  TGI PANC-1: 3.35E−06 Molar
  CC50: 6030 nM
[2]
  TGI HT-29: 3.22E−07 Molar
  GI50: 201 nM
  CC50: 536 nM
[3]
  GI50: 149 nM
  LC50 (concentration causing 50% net cell kill): 1470 nM
  TGI DU-145: 6.70E−07 Molar
[4]
  GI50: 121 nM
  LC50: 536 nM
  TGI SK-BR-3: 3.02E−07 Molar
[5]
  GI50: 107 nM
  TGI LOVO-DOX: 1.68E−07 Molar
  CC50: 335 nM
[6]
  GI50: 536 nM
  TGI HELA-APL: 1.07E−06 Molar
  CC50: 3350 nM
[7]
  GI50: 188 nM
  TGI LOVO: 2.68E−07 Molar
  CC50: 402 nM
[8]
  GI50: 670 nM
  TGI MEL-28: 1.14E−06 Molar
  CC50: 1680 nM
[9]
  TGI LN-caP: 1.34E−06 Molar
  GI50: 402 nM
  CC50: 3350 nM
[10]
  GI50: 2410 nM
  CC50: 4020 nM
[11]
  TGI A-549: 2.82E−07 Molar
  GI50: 134 nM
  CC50: 1210 nM
[12]
  GI50: 168 nM
  LC50 (concentration causing 50% net cell killing): 1070 nM
  TGI IGROV: 3.02E−07 Molar
[13]
  GI50: 288 nM
  TGI HELA: 8.04E−07 Molar
  CC50: 1680 nM
[14]
  GI50: 147 nM
  TGI IGROV-ET: 3.02E−07 Molar
  CC50: 2010 nM

## C/C=C1\NC(=O)[C@H](Cc2ccccc2)NC(=O)[C@@H](C(C)C)NC(=O)[C@@H]([C@@H](C)CC)NC(=O)[C@H](NC(=O)[C@H](NC(=O)[C@H](CCCN)NC(=O)[C@H]2CCCN2C(=O)[C@H](NC(=O)[C@@H](NC(=O)[C@@H](NC(=O)[C@H](NC(=O)CC[C@@H](C)[C@H]2CC[C@H]3[C@@H]4CC[C@@H]5C[C@H](OC(=O)C(F)(F)F)CC[C@]5(C)[C@H]4CC[C@]23C)C(C)C)[C@@H](C)OC(=O)C(F)(F)F)C(C)C)C(C)C)[C@@H](C)CC)[C@@H](C)OC(=O)[C@H](C(C)C)NC1=O [Compound 97, [Thr(OTfa)^12, Lit(OTfa)^14]-Kahalalide F]
[1]; SRB
  GI50: 2640 nM
  TGI PANC-1: 5.22E−06 Molar
  CC50: 5220 nM
[2]; SRB
  TGI HT-29: 3.36E−07 Molar
  GI50: 176 nM
  CC50: 1190 nM
[3]; SRB
  GI50: 517 nM
  LC50 (concentration causing 50% net cell kill): 2810 nM
  TGI DU-145: 1.21E−06 Molar
[4]; SRB
  GI50: 45.5 nM
  LC50: 324 nM
  TGI SK-BR-3: 1.17E−07 Molar
[5]; SRB
  GI50: 186 nM
  TGI LOVO-DOX: 3.96E−07 Molar
  CC50: 4120 nM
[6]; SRB
  GI50: 751 nM
  TGI HELA-APL: 1.61E−06 Molar
  CC50: 3440 nM
[7]; SRB
  GI50: 128 nM
  TGI LOVO: 3.01E−07 Molar
  CC50: 1090 nM
[8]; SRB
  GI50: 128 nM
  TGI MEL-28: 2.21E−07 Molar
  CC50: 384 nM
[9]; SRB
  TGI LN-caP: 1.81E−06 Molar
  GI50: 866 nM
  CC50: 3770 nM
[10]; SRB
  GI50: 1280 nM
  TGI K-562: 2.34E−06 Molar
  CC50: 4270 nM
[11]; SRB
  TGI A-549: 1.96E−06 Molar
  GI50: 1050 nM
  CC50: 3640 nM
[12]; SRB
  GI50: 244 nM
  LC50 (concentration causing 50% net cell killing): 2200 nM
  TGI IGROV: 4.64E−07 Molar
[13]; SRB
  GI50: 809 nM
  TGI HELA: 1.78E−06 Molar
  CC50: 3890 nM
[14]; SRB
  GI50: 232 nM
  TGI IGROV-ET: 4.57E−07 Molar
  CC50: 2380 nM
